For data set [1], the system named is human serum. Nature of the data set: Human serum binding (ultrafiltration, HPLC). The format is in vitro ADME. Here is the method:
The following procedure may be used to evaluate serum binding: compounds are incubated in serum for 10 min at 37° C. in a shaking water bath. Then a serum ultrafiltrate is obtained by centrifugation of ultra-filtration units (Amicon Centrifree) for, say, 20 minutes at 25° C. Compound content in the ultrafiltrate is quantified by HPLC using standards prepared in blank ultra-filtrate undergoing similar processing.
(§1) It is expected that the compounds will be equally, if not more, potent against other resistant strains of bacteria as well as bacteria which are susceptible to current clinical antibiotics. The range of utility of the compounds herein can easily be established by those skilled in the art using the disclosures herein and all bacteria within the useful range are within the scope of this invention.

Data set [2] deals with MRSA 76. Nature of the data set: In vitro MIC by agar dilution against MRSA 76. The format is cell-based. Conditions: Staphylococcus aureus; MRSA 76 isolate; read-out: MIC (μg/mL) MRSA 76.
Description: (§2) The in vitro MIC for bacterial isolates may be obtained in the following manner: a test compound is incorporated into a series of two-fold dilutions in liquified Mueller-hinton agar. Upon solidification, a number of different bacterial strains are spot-inoculated onto the surface of the agar. […] The procedures used in these experiments are generally those standardized by the National Committee for Clinical Laboratory Standards (NCCLS), as set forth in the NCCLS publication entitled “Methods for Dilution Antimicrobial Susceptibility Tests (1991), which is incorporated by reference as if fully set forth herein. The following exemplified such a procedure although it is to be understood that modifications of the procedure may be implemented as required.
(§3) Aliquots of the test compounds are prepared in phosphate buffered saline (PBS) at pH approximately 7.2. Tween 20 or dimethylsulfoxide (DMSO) are added if necessary to solubilize the compound and vortexing, sonicating and gentle heating may also be employed. Typically, the concentration of the stock solution is 10× that of the highest compound concentration to be used. Serial two-fold dilutions are prepared down to the lowest concentration to be tested. Each compound concentration is tested in duplicate. A control plate using a reference drug such as cefotaxime, vancomycin or imipenem is used as a postive control. A negative control plate containing no drug or compound is also prepared.
(§4) A few isolated colonies are retrieved from a pure culture prepared on agar plates and transferred to a tube of nutrient broth and allowed to grow at 35–36° C. until log-phase growth is achieved, usually about 4–6 hours. The broth is then added dropwise to PBS until the turbidity of the suspension matches a 0.5 McFarland standard which is equal to approximately 10^8 cfu/ml.
(§5) The test plates containing the compound dilutions and the control plates are then inoculated with the PBS suspension. The plates are then incubated for 16–20 hours at 35–36° C. The plates are then observed to determine which concentration of the test compound is the MIC.
as §1
For orientation: Agar dilution tests growth on a series of plates holding different concentrations.

Data set [3] deals with MRSA COL. Briefly: In vitro MIC by agar dilution against MRSA COL. It counts as cell-based. Conditions: Staphylococcus aureus; MRSA COL isolate; read-out: MIC (μg/mL) MRSA COL.
Description: as §2, §3, §4, §5, §1

The test system of data set [4] is MRSA. Conditions: MRSA potency, background prior-art compounds; cited from earlier work.
The test system of data set [5] is serum protein. Conditions: background prior-art compounds; cited from earlier work.

≈ marks a conversion by molar mass, not a printed value.

For `Nc1nc(/C(=N/O)C(=O)NC2C(=O)N3C(C(=O)O)=C(Sc4nncs4)CCC23)c(Cl)s1` (stereo not drawn), in data set [1], the “Human Serum Binding” value stood at 66.9%. For the same molecule, the MIC in data set [2] and in data set [3] was 2 µg/mL (≈ 3.98 µM) each time.

Regarding `Nc1nc(/C(=N/OCCF)C(=O)N[C@@H]2C(=O)N3C(C(=O)O)=C(Sc4nncs4)CCC23)cs1` (stereo partly drawn) [compound (2)], the MIC in data set [4] was 2 µg/mL (≈ 3.89 µM). Besides, the serum binding in data set [5] is listed as greater than 99.2%.

As to `Nc1nc(/C(=N/OCCF)C(=O)N[C@@H]2C(=O)N3C(C(=O)O)=C(Sc4nc5ccc([N+](=O)[O-])cc5s4)CCC23)cs1` (stereo partly drawn) [compound (3)], in data set [4], the MIC is 4 µg/mL (≈ 6.58 µM). Further, in data set [5], the serum binding is recorded as 99.6%.

Regarding `NCCSCc1ncccc1SC1=C(C(=O)O)N2C(=O)C(NC(=O)/C(=N\O)c3nc(N)sc3Cl)C2CC1` (stereo not drawn), the “Human Serum Binding” value in data set [1] is given as 89.4%. Also, the MIC is 2 µg/mL (≈ 3.42 µM) in data set [2] and 1 µg/mL (≈ 1.71 µM) in data set [3].

With `Nc1nnc(SC2=C(C(=O)O)N3C(=O)C(NC(=O)/C(=N\O)c4nc(N)sc4Cl)C3CC2)s1` (stereo not drawn), the “Human Serum Binding” value in data set [1] came out at 68.0%. In addition, the MIC in data set [2] came to 2 µg/mL (≈ 3.87 µM); in data set [3], 1 µg/mL (≈ 1.93 µM).

For `NCCSCc1cnccc1SC1=C(C(=O)O)N2C(=O)C(NC(=O)/C(=N\O)c3nc(N)sc3Cl)C2CC1` (stereo not drawn), in data set [1], the “Human Serum Binding” value was determined as 74.5%. Moreover, the MIC in data set [2] and in data set [3] was 1 µg/mL (≈ 1.71 µM) throughout.

As for `Nc1nc(/C(=N/OCCF)C(=O)N[C@@H]2C(=O)N3C(C(=O)O)=C(Sc4nc5cnccc5s4)CCC23)cs1` (stereo partly drawn) [compound (4)], the MIC in data set [4] was 64 µg/mL (≈ 114 µM). Moreover, in data set [5], the serum binding is 36%.

Source of the values: patent US7109190B2, “Carbacephem β-lactam antibiotics” (Trine Pharmaceuticals, Inc., priority 2003, dated 2006).
